Structures can show the parent of a compound that is named as a salt.
Test system: Ovarian TICs (Ovarian 2393A)
Assay: Ovarian tumor-initiating cell growth inhibition, Alamar Blue assay
Assay type: cell-based
Conditions: 144 h, read-out: Tumor Initiating Cell GI50 Range Ovarian 2393A
Text: Materials and Methods: Non-tissue or tissure cultured treated T-75 flask and 96-well plates were purchased from VWR. Vitamin B-27 supplement, MEM NEAA (minimum essential medium non-essential amino acids), sodium pyruvate, L-glutamine, N2 supplement, penicillin-streptomycin and fungizone/amphotericin B were obtained from Invitrogen. Lipid mixture, heparin and EGF were purchased from Sigma; bFGF from BD Biosciences. Tumor Initiating Cells (TICs) from colon were routinely maintained using non-tissue cultured treated T-75 flasks in DMEM:F12 medium containing 0.2×B-27 supplement, 4 ug/ml heparin, 1×MEM NEAA, 1×sodium pyruvate, 1 mM glutamine, 10 pg/ul bFGF, 20 pg/ul EGF, 1× N2 supplement, lipid mixture, penicillin-streptomycin and fungizone/amphotericin B. Ovarian TICs were routinely maintained using tissue cultured treated T-75 flasks in DMEM:F12 medium containing 1×B-27 supplement, 4 ug/ml heparin, 20 pg/ul bFGF, 20 pg/ul EGF and penicillin-streptomycin. Assay Protocol: Compounds described herein were dissolved in DMSO and further diluted in cell culture medium for GI50 determination. […] Cell viability was assessed by Alamar Blue assay: 10 ul of Alamar Blue was added into each well. After 4 hours incubation at 37° C., fluorescence was recorded at excitation 544 and emission 590. GI50 (Growth inhibition) was calculated using GraphPad Prism 4.0 software. […]

SMILES: Cc1cc(-c2cnn3c(NC[C@H]4C[C@@](C)(O)C4)cc(Oc4cccnc4)nc23)ccc1C(=O)NC1CC1 [Example A4, N-cyclopropyl-4-(7-((((1s,3s)-3-hydroxy-3-methylcyclobutyl)methyl)amino-5-(pyridin-3-yloxy)pyrazolo[1,5-a]pyrimidin-3-yl)-2-methylbenzamide hydrochloride and itsfreebase]
- GI50: < 100 nM

Reference: patent US9657025B2, “Pyrazolopyrimidine compounds” (University Health Network, priority 2013, dated 2017)
